Experimental data: ChEMBL document CHEMBL1144250, “3D QSAR studies on GSK-3 inhibition by aloisines” (Bioorg Med Chem Lett, 2005)

molecular target: Glycogen synthase kinase-3 (Homo sapiens, UniProt P49840+P49841); assay: Inhibitory concentration against Glycogen synthase kinase-3; type: protein assay

Row | Compound | Log IC50
1 | c1ccc(-c2cc3[nH]ccnc-3n2)cc1 | -5.64
2 | Fc1ccc(-c2cc3[nH]ccnc-3n2)cc1 | -5.72
3 | Clc1ccc(-c2[nH]c3nccnc3c2CC2CCCCC2)cc1 | -5.1
4 | CCCCc1c(-c2ccc(Cl)cc2)[nH]c2nccnc12 | -5.23
5 | Cc1ccc(-c2cc3[nH]ccnc-3n2)cc1 | -5.59
6 | CCCc1c(-c2ccc(OC)cc2)[nH]c2nccnc12 | -6.4
7 | COc1ccc(-c2[nH]c3nccnc3c2C(C)C)cc1 | -6.3
8 | Clc1ccc(-c2[nH]c3nccnc3c2Cc2ccccc2)cc1 | -5.17
9 | COc1cc(-c2cc3[nH]ccnc-3n2)cc(OC)c1OC | -4.7
10 | COc1ccc(-c2[nH]c3nccnc3c2C)cc1OC | -5.7
11 | Oc1ccc(-c2[nH]c3nccnc3c2CC2CC2)cc1 | -5.52
12 | COc1ccc(-c2[nH]c3nccnc3c2CC2CC2)cc1 | -5.96
13 | CCCCCCCc1c(-c2ccc(OC)cc2)[nH]c2nccnc12 | -5
14 | C=CCc1c(-c2ccc(OC)cc2)[nH]c2nccnc12 | -6.22
15 | COc1ccc(-c2[nH]c3nccnc3c2CCCCl)cc1 | -5.6
16 | COc1cc(OC)cc(-c2cc3[nH]ccnc-3n2)c1 | -4.22
17 | COc1ccc(-c2cc3[nH]ccnc-3n2)cc1 | -5.96

Row | Compound | Log IC50
18 | CCCc1c(-c2ccc(O)cc2)[nH]c2nccnc12 | -5.74
19 | FC(F)(F)c1ccc(-c2cc3[nH]ccnc-3n2)cc1 | -5.14
20 | Brc1ccc(-c2cc3[nH]ccnc-3n2)cc1 | -5.22
21 | CC(C)c1c(-c2ccc(Cl)cc2)[nH]c2nccnc12 | -6.12
22 | COc1ccc(-c2[nH]c3nccnc3c2C)cc1 | -6.34
23 | CN(C)c1ccc(-c2cc3[nH]ccnc-3n2)cc1 | -4.92
24 | c1ccc(Cc2c(-c3ccccc3)[nH]c3nccnc23)cc1 | -6
25 | Cc1c(-c2ccc(OS(=O)(=O)N(C)C)cc2)[nH]c2nccnc12 | -6.3
26 | Oc1ccccc1-c1cc2[nH]ccnc-2n1 | -5.19
27 | COc1ccccc1-c1cc2[nH]ccnc-2n1 | -5.48
28 | Cc1c(-c2ccc(O)cc2)[nH]c2nccnc12 | -6.28
29 | N#Cc1ccc(-c2cc3[nH]ccnc-3n2)cc1 | -5.32
30 | COc1ccc(-c2[nH]c3nccnc3c2CC2CCCCC2)cc1 | -5.17
31 | Cc1c(-c2ccc(Cl)cc2)[nH]c2nccnc12 | -5.77
32 | COc1cccc(-c2cc3[nH]ccnc-3n2)c1 | -5.5
33 | Oc1ccc(-c2cc3[nH]ccnc-3n2)cc1 | -5.92
34 | CCCCc1c(-c2ccc(OC)cc2)[nH]c2nccnc12 [ALOISINE] | -6.04
